Data taken from US6534542B2, “(2-hydroxy)ethyl-thioureas useful as modulators of α2B adrenergic receptors” (Allergen Sales, Inc., priority 2001, dated 2003).

Assays:
alpha2B receptor = target: T1, alpha2B receptor (Homo sapiens, UniProt P18089); experiment: Receptor Selection and Amplification Technology (RSAT) assay, alpha2B; format: cell-based; settings: NIH-3T3 cells; for EC50: NA = not active at concentrations less than 10 micromolar, read-out: RSAT EC50 (nM) Alpha 2B; for fraction of activity of the standard (brimonidine) attained, Alpha 2B (number in parenthesis): ratio of maximal effect to that of standard full agonist brimonidine
T1 construct: expressed in transfected cells; host or cells: NIH-3T3
T1 sequence (P18089 1-450): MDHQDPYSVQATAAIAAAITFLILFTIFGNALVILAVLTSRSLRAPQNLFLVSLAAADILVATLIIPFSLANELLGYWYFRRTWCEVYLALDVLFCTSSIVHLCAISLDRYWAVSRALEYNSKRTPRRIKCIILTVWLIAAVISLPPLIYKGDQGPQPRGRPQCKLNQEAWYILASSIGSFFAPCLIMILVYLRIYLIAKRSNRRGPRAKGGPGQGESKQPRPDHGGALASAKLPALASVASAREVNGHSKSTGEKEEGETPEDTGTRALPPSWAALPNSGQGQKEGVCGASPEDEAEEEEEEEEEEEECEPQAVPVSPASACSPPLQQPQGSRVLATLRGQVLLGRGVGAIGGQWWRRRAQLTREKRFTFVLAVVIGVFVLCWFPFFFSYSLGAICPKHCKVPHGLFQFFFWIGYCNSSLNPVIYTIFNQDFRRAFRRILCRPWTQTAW
Excerpt: (§1) The compounds of the invention are agonists of α2 adrenergic receptors, particularly they tend to be specific or selective agonists of α2B and/or to a lesser extent α2C adrenergic receptors, in preference over α2A adrenergic receptors. […] Al., 1995, Pharmacol. Toxicol. 76, pp. 308-311 (incorporated herein by reference) and is also described below. Another reference pertinent to this assay is Conklin et al. (1993) Nature 363:274-6, also incorporated herein by reference.
(§2) The RSAT assay measures a receptor-mediated loss of contact inhibition that results in selective proliferation of receptor-containing cells in a mixed population of confluent cells. The increase in cell number is assessed with an appropriate transfected marker gene such as β-galactosidase, the activity of which can be easily measured in a 96-well format. Receptors that activate the G protein, Gq, elicit this response. Alpha2 receptors, which normally couple to Gi, activate the RSAT response when coexpressed with a hybrid Gq protein that has a Gi receptor recognition domain, called Gq/i5^2.
(§3) NIH-3T3 cells are plated at a density of 2×10^6 cells in 15 cm dishes and maintained in Dulbecco's modified Eagle's medium supplemented with 10% calf serum. One day later, cells are cotransfected by calcium phosphate precipitation with mammalian expression plasmids encoding p-SV-β-galactosidase (5-10 μg), receptor (1-2 μg) and G protein (1-2 μg). 40 μg salmon sperm DNA may also be included in the transfection mixture. Fresh media is added on the following day and 1-2 days later, cells are harvested and frozen in 50 assay aliquots. Cells are thawed and 100 μl added to 100 μl aliquots of various concentrations of drugs in triplicate in 96-well dishes. Incubations continue 72-96 hr at 37°. After washing with phosphate-buffered saline, β-galactosidase enzyme activity is determined by adding 200 μl of the chromogenic substrate (consisting of 3.5 mM o-nitrophenyl-β-D-galactopyranoside and 0.5% nonidet P-40 in phosphate buffered saline), incubating overnight at 30 and measuring optical density at 420 nm. The absorbance is a measure of enzyme activity, which depends on cell number and reflects a receptor-mediated cell proliferation. The EC50 and maximal effect of each drug at each alpha2 receptor is determined. The efficacy or intrinsic activity is calculated as a ratio of the maximal effect of the drug to the maximal effect of a standard full agonist for each receptor subtype. Brimonidine, also called […], the chemical structure of which is shown below, is used as the standard agonist for the alpha2A, alpha2B and alpha2C receptors. [drawing 6]
(§4) The results of the RSAT assay with several exemplary compounds of the invention are disclosed in Table 3. […] NA stands for “not active” at concentrations less than 10 micromolar. As is known EC50 is the concentration at which half of a given compound's maximal activity is observed. It can be seen from the table that the compounds of the invention are specific or selective agonists of α2B and/or α2C adrenergic receptors, with no agonist like activity or only with insignificant agonist-like activity on α2A receptors.

alpha2C receptor = target: T2, alpha2C receptor (Homo sapiens, UniProt P18825); experiment: Receptor Selection and Amplification Technology (RSAT) assay, alpha2C; format: cell-based; settings: NIH-3T3 cells; for EC50: NA = not active at concentrations less than 10 micromolar, read-out: RSAT EC50 (nM) Alpha 2C; for fraction of activity of the standard (brimonidine) attained, Alpha 2C (number in parenthesis): ratio of maximal effect to that of standard full agonist brimonidine
T2 construct: expressed in transfected cells; host or cells: NIH-3T3
T2 sequence (P18825 1-462): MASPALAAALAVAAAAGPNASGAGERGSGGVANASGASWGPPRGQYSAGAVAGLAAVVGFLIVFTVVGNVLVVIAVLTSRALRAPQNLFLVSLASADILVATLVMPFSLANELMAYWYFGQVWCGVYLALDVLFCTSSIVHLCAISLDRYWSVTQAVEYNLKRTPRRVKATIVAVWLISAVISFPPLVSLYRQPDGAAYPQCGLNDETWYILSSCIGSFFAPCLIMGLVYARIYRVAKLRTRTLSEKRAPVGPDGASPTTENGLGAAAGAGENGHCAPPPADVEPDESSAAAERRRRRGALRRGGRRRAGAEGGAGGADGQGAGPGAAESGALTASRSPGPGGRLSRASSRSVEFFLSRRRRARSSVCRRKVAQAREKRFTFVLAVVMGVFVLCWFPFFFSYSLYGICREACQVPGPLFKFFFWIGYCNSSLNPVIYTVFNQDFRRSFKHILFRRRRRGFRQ
Excerpt: as §1, §2, §3, §4

alpha2A receptor = target: T3, alpha2A receptor (Homo sapiens, UniProt P08913); experiment: Receptor Selection and Amplification Technology (RSAT) assay, alpha2A; format: cell-based; settings: NIH-3T3 cells; for EC50: NA = not active at concentrations less than 10 micromolar, read-out: RSAT EC50 (nM) Alpha 2A; for fraction of activity of the standard (brimonidine) attained, Alpha 2A (number in parenthesis): ratio of maximal effect to that of standard full agonist brimonidine
T3 construct: expressed in transfected cells; host or cells: NIH-3T3
T3 sequence (P08913 1-465): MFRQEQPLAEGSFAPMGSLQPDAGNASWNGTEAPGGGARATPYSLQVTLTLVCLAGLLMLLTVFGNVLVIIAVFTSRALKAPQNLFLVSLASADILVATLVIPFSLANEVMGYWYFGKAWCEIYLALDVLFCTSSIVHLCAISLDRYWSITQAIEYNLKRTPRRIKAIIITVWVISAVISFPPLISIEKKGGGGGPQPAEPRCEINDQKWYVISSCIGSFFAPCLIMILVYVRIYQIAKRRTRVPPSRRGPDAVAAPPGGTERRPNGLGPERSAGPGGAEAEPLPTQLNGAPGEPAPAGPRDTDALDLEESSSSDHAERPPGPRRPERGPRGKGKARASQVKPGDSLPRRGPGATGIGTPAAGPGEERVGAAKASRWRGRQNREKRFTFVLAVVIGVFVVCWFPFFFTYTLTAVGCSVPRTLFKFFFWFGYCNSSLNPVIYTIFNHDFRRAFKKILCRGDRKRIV
Excerpt: as §1, §2, §3
The results of the RSAT assay with several exemplary compounds of the invention are disclosed in Table 3. […] NA stands for “not active” at concentrations less than 10 micromolar. […]

[1] = test system: rats with ligated L5 and L6 spinal nerves; experiment: Alleviation of chronic pain: tactile allodynia after L5/L6 spinal nerve ligation (von Frey hairs); format: in vivo, rat; settings: 30 minutes after administration, ±SEM
Excerpt: A model for chronic pain (in particular peripheral neuropathy such as causalgia) involves the surgical ligation of the L5 (and optionally the L6) spinal nerves on one side in experimental animals. Rats recovering from the surgery gain weight and display a level of general activity similar to that of normal rats. However, these rats develop abnormalities of the foot, wherein the hindpaw is moderately everted and the toes are held together. More importantly, the hindpaw on the side affected by the surgery appears to become sensitive to pain from low-threshold mechanical stimuli, such as that producing a faint sensation of touch in a human, within about 1 week following surgery. This sensitivity to normally non-painful touch is called “tactile allodynia” and lasts for at least two months. The response includes lifting the affected hindpaw to escape from the stimulus, licking the paw and holding it in the air for many seconds. None of these responses is normally seen in the control group.
Rats are anesthetized before surgery. The surgical site is shaved and prepared either with betadine or Novacaine. Incision is made from the thoracic vertebra XIII down toward the sacrum. Muscle tissue is separated from the spinal vertebra (left side) at the L4-S2 levels. The L6 vertebra is located and the transyerse process is carefully removed with a small rongeur to expose the L4-L6 spinal nerves. The L5 and L6 spinal nerves are isolated and tightly ligated with 6-0 silk thread. The same procedure is done on the right side as a control, except no ligation of the spinal nerves is performed. A complete hemostasis is confirmed, then the wounds are sutured. A small amount of antibiotic ointment is applied to the incised area, and the rat is transferred to the recovery plastic cage under a regulated heat-temperature lamp. On the day of the experiment, at least seven days after the surgery, typically six rats per test group are administered the test drugs by intraperitoneal (i.p.) injection or oral gavage. For i.p. injection, the compounds are formulated in approximately 10 to 50% DMSO and given in a volume of 1 ml/kg body weight.
Tactile allodynia is measured prior to and 30 minutes after drug administration using von Frey hairs that are a series of fine hairs with incremental differences in stiffness. Rats are placed in a plastic cage with a wire mesh bottom and allowed to acclimate for approximately 30 minutes. The von Frey hairs are applied perpendicularly through the mesh to the mid-plantar region of the rats' hindpaw with sufficient force to cause slight buckling and held for 6-8 seconds. The applied force has been calculated to range from 0.41 to 15.1 grams. If the paw is sharply withdrawn, it is considered a positive response. A normal animal will not respond to stimuli in this range, but a surgically ligated paw will be withdrawn in response to a 1-2 gram hair. The 50% paw withdrawal threshold is determined using the method of Dixon, […]. The post-drug threshold is compared to the pre-drug threshold and the percent reversal of tactile sensitivity is calculated based on a normal threshold of 15.1 grams. The results are expressed in per cent (%) MPE, where the MPE value reflects the percentage reversal of pain threshold to that of a normal animal (100%). Table 4 below indicates results of this test with Compounds 8, 34 and 40 of the invention, administered i.p., in intrathecal and oral doses.

male Sprague-Dawley rats = experiment: Sedative activity (exploratory behavior after i.p. injection); format: in vivo; settings: rat, intraperitoneally, up to a dose of 300 μg/kg
Method: To test sedation, six male Sprague-Dawley rats are given up to 3 mg/kg of the test compound in a saline or DMSO vehicle by intraperitoneal injection (i.p.). Sedation is graded 30 minutes following administration of the drug by monitoring locomotor skills as follows.
The Sprague-Dawley rats are weighed and 1 ml/kg body weight of an appropriate concentration (ie. 3 mg/ml for a final dose of 3 mg/kg) drug solution is injected intraperitoneally. Typically the test compound is formulated in approximately 10 to 50% DMSO. The results are compared to controls that are injected with 1 ml/kg saline or 10 to 50% DMSO. Rat activity is then determined 30 minutes after injection of the drug solution. Rats are placed in a dark covered chamber and a digicom analyzer (Omnitech Electronic) quantitates their exploratory behavior for a five-minute period. The machine records each time the rat interrupts an array of 32 photoelectric beams in the X and Y orientation.

| SMILES | EC50 (alpha2B receptor) [nM] | fraction of activity of the standard (brimonidine) attained, Alpha 2B (number in parenthesis) (alpha2B receptor) | EC50 (alpha2C receptor) [nM] | fraction of activity of the standard (brimonidine) attained, Alpha 2C (number in parenthesis) (alpha2C receptor) | EC50 (alpha2A receptor) [nM] | fraction of activity of the standard (brimonidine) attained, Alpha 2A (number in parenthesis) (alpha2A receptor) | % MPE ([1]; IP dose 10 μg/kg) [% MPE] | % MPE ([1]; IP dose 30 μg/kg) [% MPE] | % MPE ([1]; IP dose 100 μg/kg) [% MPE] | % MPE ([1]; IP dose 300 μg/kg) [% MPE] | sedative effect (male Sprague-Dawley rats) | % MPE ([1]; IP dose 1000 μg/kg) [% MPE] | % MPE ([1]; IP dose 3000 μg/kg) [% MPE] | % MPE ([1]; Oral dose 1000 μg/kg) [% MPE] |
| --- | --- | --- | --- | --- | --- | --- | --- | --- | --- | --- | --- | --- | --- | --- |
| CC[C@H]1CCCC[C@@H]1NC(=S)NCCO (relative stereo) [Compound 37, 1-(trans-2-Ethyl-cyclohexyl)-3-(2-hydroxy-ethyl)-thiourea] | 2 | (0.93) | 106 | (0.4) | 14 | (0.4) |  |  |  |  |  |  |  |  |
| CC1=C(C)C(NC(=S)NCCO)CC1 (stereo not drawn) [Compound 15, 1-(2,3-Dimethyl-cyclopent-2-enyl)-3-(2-hydroxy-ethyl)-thiourea] | 5 | (1.08) | 197 | (0.4) | 515 | (0.4) |  |  |  |  |  |  |  |  |
| CCC1=CCCCC1NC(=S)NCCO (stereo not drawn) [Compound 34, 1-(2-Hydroxy-ethyl)-3-(2-ethyl-cyclohex-2-enyl)-thiourea] | 11 | (0.88) | 59 | (0.62) |  |  | 0.4 ± 1.0 | 48 ± 6.1 | 66 ± 11 | 96 ± 3.7 |  |  |  |  |
| C[C@H]1CC[C@H](NC(=S)NCCO)CC1 [Compound 40, 1-(2-Hydroxy-ethyl)-3-(4-methyl-cyclohexyl)-thiourea] | 57 | (0.62) |  |  |  |  | 0.1 ± 1.8 | 42 ± 9.2 | 46 ± 7.1 | 77 ± 8.0 | no sedative effect | 83 ± 7.0 | 90 ± 6.1 | 80 ± 6.1 |
